The text below walks through data of ChEMBL document CHEMBL1201862, “PubChem BioAssay data set” (2004).

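In this assay, cells in 96-well plates receive the compound at five concentrations for 48 hours. Endpoints are linearly interpolated between the surrounding concentrations. Here, GI50 denotes the concentration required for 50% inhibition of growth.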 Activity calls are given as the source filed them. Cut-off read from the data, not from the text of the source: active = GI50 up to about 1.1 µM and inactive = higher. Where only a bound is given, the exact number is not on record here.

Test systems include BT-549; UACC-257; MCF7; ACHN; NCI-H226; SF-295; CAKI-1; MDA-MB-435; Hs-578T; SNB-75; MDA-MB-231; OVCAR-4; A549; EKVX; DU-145; SK-MEL-2; M14; HOP-62; LOX IMVI; 786-0.
Common to all, as to assay: inhibition of tumour cell growth, NCI panel, 48 h

Regarding `Cc1cn([C@@H]2C[C@](C)(CO)N(C)O2)c(=O)[nH]c1=O`, the GI50 in the assay on BT-549, in the assay on UACC-257, with MCF7, in the assay with ACHN, in the assay on NCI-H226 and in the assay with SF-295 was > 100 µM (inactive) in each case. Moreover, the GI50 in the assay on CAKI-1 is > 100 µM (inactive); in the assay with MDA-MB-435 it was > 100 µM (inactive); in the assay on Hs-578T, > 100 µM (inactive); in the assay on SNB-75, 8.53 µM (inactive); with MDA-MB-231, > 100 µM (inactive); with OVCAR-4, > 100 µM (inactive). Besides, the GI50 in the assay with A549, with EKVX, with DU-145, with SK-MEL-2, with M14 and with HOP-62 was > 100 µM (inactive) each time. The GI50 in the assay with LOX IMVI and in the assay on 786-0 was > 100 µM (inactive) throughout.
Regarding `CN1CN(c2ccccc2)C2(CCNCC2)C1=O`, the GI50 in the assay with BT-549, in the assay on UACC-257, in the assay with MCF7, in the assay on ACHN, in the assay on NCI-H226 and in the assay with SF-295 was > 100 µM (inactive) throughout. Further, the GI50 in the assay on CAKI-1, in the assay on MDA-MB-435, in the assay with Hs-578T, in the assay on SNB-75, in the assay with MDA-MB-231 and in the assay on OVCAR-4 was > 100 µM (inactive) throughout. The GI50 with A549, in the assay on EKVX, with DU-145, in the assay with SK-MEL-2, with M14 and with HOP-62 was > 100 µM (inactive) in each case. For the same compound, the GI50 in the assay on LOX IMVI and in the assay on 786-0 was > 100 µM (inactive) throughout.
On to `NC(=S)N/N=C/c1ncccc1N` [TRIAPINE], for which the GI50 was 2.37 µM (inactive) with BT-549; > 6.65 µM (inactive) in the assay with UACC-257; 0.452 µM (active) with MCF7; 0.282 µM (active) with ACHN; 2.75 µM (inactive) in the assay on NCI-H226; 1.21 µM (inactive) with SF-295. For the same compound, the GI50 with CAKI-1 is 0.521 µM (active); in the assay on MDA-MB-435, 1.71 µM (inactive); in the assay with Hs-578T, > 10 µM (inactive); in the assay on SNB-75, 0.773 µM (active); in the assay on MDA-MB-231, 5.28 µM (inactive); in the assay with OVCAR-4, 7.48 µM (inactive). The GI50 in the assay with A549 was 2.02 µM (inactive); in the assay on EKVX, 7.55 µM (inactive); with DU-145, 0.681 µM (active); in the assay on SK-MEL-2 it was > 10 µM (inactive); in the assay with M14, 0.583 µM (active); in the assay with HOP-62, 1.19 µM (inactive). Moreover, the figures for the GI50 in the assay on LOX IMVI and in the assay with 786-0 were 0.679 µM (active) and 0.314 µM (active), respectively.
